# Test results from paper PMC10447463, “Data-mining unveils structure–property–activity correlation of viral infectivity enhancing self-assembling peptides” (Nature Communications, 2023).
# Assays:
# [1] = test system: HIV-1 infection of TZM-bl cells; experiment: HIV-1 infectivity enhancement assay, β-galactosidase luminescence; format: cell-based; conditions: for Log10 Infection Rel EF-C: log10 of infection relative to EF-C, Figure 7B; for Inf. rel. EF-C: n-fold infection vs virus only, relative to that of EF-C, 1.3 µM peptide
# [2] = Zeta-potential measurement; format: physicochemical; conditions: for Zeta pot. / mV: 1 mg/mL in PBS pH 7.4 from 10 mg/mL DMSO stock, 1 d RT, 60 µL diluted in 600 µL 1 mM KCl, Zetasizer Nano ZS, Smoluchowski, mean of triplicate; for Zeta-Potential / mV: mean, Figure 7B
# Summary of the method: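 Peptides from a 10 mg/mL DMSO stock were brought to 1 mg/mL in PBS (pH 7.4) and aged 1 d at RT. Just before reading, they were diluted into 1 mM aqueous KCl, and zeta potential was calculated from electrophoretic mobility with the Smoluchowski formula.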
# [3] = format: physicochemical; design: key to Fibril / Fibril Formation / TEM 2cat / Fibril: 1 = fibrils present; 0 non-fibrillar structures; conditions: for Fibril / Fibril Formation: TEM, 1 mg/mL, uranyl acetate stain, qualitative
# [4] = Turbidity, derived count rate of scattered light; format: physicochemical; conditions: log10 of derived count rate of scattered light, Figure 7B
Substance,Log10 Infection Rel EF-C [1],Inf. rel. EF-C [1],Zeta pot. / mV [2] [mV],Zeta-Potential / mV [2] [mV],Fibril / Fibril Formation [3],Log10 Count Rate [4],Zeta Pot. / mV [2] [mV],Zeta category ( +1 = if > 4 mV;-1 = if < -4 mV; 0 = -4mV to 4 mV) [2],"TEM: 1= fibrils, 0= aggregates (micelle), 0.5 = aggregates and fibrils, -1 = nothing obersved, STD prep ([3]; STD prep)"
DFNKF [reference compound],-1.07,0.08,-11.8,-11.77,1,3.027,–,–,–
VLYVGSKT [reference compound],-1.24,0.06,-9.1,-9.07,0,1.386,–,–,–
RIRIQIC [PS07],–,–,–,–,–,–,16,1 (+1 = if > 4 mV),1
IIKIIK [reference compound],-1.1,0.08,-7.0,-7,0,0.6128,–,–,–
NSGAITIG-NH2 [reference compound],-1.26,0.05,-8.4,-8.45,0,1.294,–,–,–
GQTVTK [reference compound],-1.25,0.06,-5.3,-5.26,0,1.536,–,–,–
GAITIG-NH2 [reference compound],-1.35,0.04,-5.4,-5.36,0,1.474,–,–,–
RCELARTLKR [reference compound],-1.06,0.09,-0.9,-0.85,0,1.893,–,–,–
VQIVYK [reference compound],-1.17,0.07,-2.7,-2.66,0,1.414,–,–,–
GNNQQNY [reference compound],-1.28,0.05,-6.6,-6.62,0,1.572,–,–,–
